Patent US8207136B2, “Nucleoside compounds and methods of use thereof” (The Board of Trustees of the University of Illinois, priority 2005, dated 2012)

Key:
RNA polymerase II = target: T1, RNA polymerase II (Homo sapiens, UniProt P24928); assay: Nuclear run-on assay, nuclei isolated from untreated HCT-116 cells then treated; assay type: biochemical; details: 50 μM ARC, 50 μM DRB or 2 μg/ml α-amanitin
T1 construct: nuclei were isolated from normally growing untreated HCT-116 cells and treated with each of these agents; endogenous in cells; host or cells: nuclei of HCT-116 colon cancer cells
Procedure: Run-on assays with isolated nuclei were performed as described. Briefly, cells treated with the indicated agents were lysed with hypotonic buffer (10 mM Tris-HCl pH 7.4, 10 mM NaCl and 35 mM MgCl2) and nuclei collected by centrifugation and resuspended in nuclear storage buffer (50 mM HEPES pH 8.0, 5 mM MgCl2, 0.5 mM DTT, 1 mg/ml BSA and 25% (v/v) glycerol) at about 5×10^8 nuclei/ml and stored at −80° C. Transcription reactions were performed in 200 μl volume consisting of 1×10^7 nuclei in the presence of 0.12 M KCl, 7 mM Mg(Ac)2, 25 μCi of [^32P]GTP, 500 μM ATP, UTP and CTP at 30° C. Samples were collected at various time points (18 μl/time point—0, 5, 10, 20 and 30 min) and the reaction terminated by the addition of 57 μl of Sarkosyl solution (1% Sarkosyl, 0.1 M Tris pH 8.0, 0.1 M NaCl, 10 mM EDTA and 200 μg/ml tRNA). The stopped reactions were transferred to Whatman DE81 paper, and washed four times with wash buffer (5% K2HPO4 and 0.3% Na4P2O7) for 10 min, followed by a 5-min water wash. Then the paper was briefly rinsed with 95% ethanol and allowed to dry completely. Radiation was quantitated using a liquid scintillation counter.
In order to evaluate the ability of ARC to bind to and inhibit RNA polymerase II directly (like α-amanitin) or indirectly (like DRB), nuclei were isolated from normally growing untreated HCT-116 cells and treated with each of these agents, and then assayed for rate of transcription by nuclear run-on assay.

[1] = test system: MCF-7 breast cancer cells; assay: Apoptosis assays in MCF-7 breast cancer cells; assay type: cell-based, human
Procedure: Immunoblotting was performed as described with antibodies specific for p53 (sc-126 HRP; Santa Cruz), hdm2 (sc-965; Santa Cruz), p21 (556431; BD Pharmingen), Sp1 (sc-59; Santa Cruz), survivin (sc-10811; Santa Cruz), phospho RNA polymerase II (4735; Cell Signaling), total RNA polymerase II (8WG16; a gift from Dr. Schlegel, University of Illinois at Chicago), α-tubulin (T9026; Sigma), cleaved caspase-3 (9664; Cell Signaling), caspase-9 (9502; Cell Signaling) and β-actin (A5441; Sigma) antibodies.
Apoptosis was detected either by DAPI (4′,6-diamidino-2-phenylindole) staining or by Flow Cytometry after PI (Propidium Iodide) staining. For DAPI staining, all treatments (DMSO or ARC) were done in triplicates in 6-well plates and cells were stained with DAPI and visualized by fluorescent microscopy. Four random fields for each sample were photographed and at least 500 cells per field were counted to estimate apoptosis. The data is represented as mean±Standard deviation (sd).
In order to further characterize ARC with respect to its apoptotic potential, cell lines derived from cancers of different origin were utilized. MCF-7 breast cancer cells underwent apoptosis (around 45% and 55%, respectively, with 10 and 20 μM of ARC) after 24 hours of treatment (FIGS. 5A and 5B). […] To evaluate the extent to which ARC-mediated apoptosis is p53-dependent, an MCF-7 cell line that stably expresses a short hairpin RNA (shRNA) targeting p53 (MCF-7-p53si) was used.

Akt = Akt Ser473 phosphorylation immunoblot in mAkt-overexpressing cells; assay type: cell-based; details: Rat1a-mAkt and MCF7-mAkt cells, 24 hours
Procedure: FIG. 9. ARC interferes with the Akt pathway by inhibiting phosphorylation of Akt. Rat1a and MCF-7 cells overexpressing myristoylated-Akt (mAkt) were treated with the indicated concentration of ARC for 24 hours, after which the cell lysates were used for immunoblotting with total and phospho-Ser473 specific Akt antibodies.
Another survival pathway that protects mitochondrial integrity is the Akt (AKT8 virus oncogene cellular homolog) pathway. In order to see if this pathway is affected, two different cell lines that overexpress myrisotylated-Akt (Rat1a-mAkt, and MCF7-mAkt) were used. Myristolated-Akt is a membrane-targeted Akt, a kinase involved in anti-apoptotic signaling.

Mcl-1, Bcl-2 = assay: Immunoblot of Bcl-2 and Mcl-1 levels; assay type: cell-based
Procedure: FIG. 8. ARC downregulates Mcl-1 levels in different cancer cells. (A) U937 leukemia cells were treated with different concentrations of ARC as indicated for 24 hours and the cell lysates were probed for Mcl-1 levels. (B) Neuroblastoma cell lines were treated either with DMSO or 1 μM ARC for 24 hours and levels of Mcl-1 were assessed by immunoblotting.
In order to further probe the mechanism of ARC-induced apoptosis, whether or not ARC causes mitochondrial injury was investigated. Permeabilization of mitochondria, followed by cytochrome c release has previously been observed for transcriptional inhibitor flavopiridol. For this analysis, leukemia cell lines CEM, HL-60, NB4 and U937 were treated with either DMSO or ARC. […] It is well known that the Bcl2 family members (eg., Bcl-2, Bcl-XL, Mcl-1) protect the mitochondrial integrity, thereby acting in an anti-apoptotic manner. It is possible that ARC modulates the expression of one or more of these proteins to cause mitochondrial injury.

p21 promoter = assay: p21 promoter-lacZ reporter screen in LIM1215 colon carcinoma cells; assay type: cell-based, human; details: 10 μM, 24 hours
Procedure: LIM1215 colon carcinoma cells harboring the lacZ reporter gene under the control of a 2.3 kb p21 promoter (containing two p53 binding sites) were grown in 96-well plates. Diversity set, a chemical compound library containing approximately 2000 compounds (dissolved in DMSO), was obtained from the National Cancer Institute (NCI) and was used at a final concentration of 10 μM on the cells for 24 hours. lacZ encoded β-Gal was detected by X-Gal staining as described previously.
In order to find small molecule transcriptional inhibitors of p21, we generated LIM1215 colon cancer cells, carrying lacZ under the control of p21 promoter, as a screening system for testing ˜2000 structurally diverse compounds (Diversity Set) obtained from National Cancer Institute (NCI). […] To determine if these effects mediated by ARC were dose-dependent, we treated HCT-116 colon carcinoma cells with different concentrations of ARC.

`NNc1c(C(N)=O)c2c(N)ncnc2n1[C@@H]1O[C@H](CO)[C@@H](O)[C@H]1O` [ARC, 4-amino-6-hydrazino-7-beta-D-ribofuranosyl-7H-pyrrolo[2,3-d]-pyrimidine-5-carboxamide] was tested, and the “rate of transcription, agent added to isolated nuclei” value (RNA polymerase II) was “did not affect the rate of transcription”, the “apoptosis (DAPI staining)” value ([1]; 10 μM, 24 hours) was “around 45%” and the “apoptosis (DAPI staining)” value ([1]; 20 μM, 24 hours) was ~55%. The “cleavage of caspase-9” value ([1]; MCF-7, 24 hours) was “cleavage of caspase-9 upon ARC treatment was observed”, the “cleavage of caspase-9” value ([1]; MCF-7-p53si cells (shRNA targeting p53), 24 hours) was “Cleavage of caspase-9 was detected” and the “Ser473 phosphorylation on Akt” value (Akt) was “decrease in Ser473 phosphorylation on Akt”. The Mcl-1 levels (Mcl-1, Bcl-2; U937 leukemia and neuroblastoma cell lines, 24 hours) was “drastically reduced”, the Bcl-2 levels (Mcl-1, Bcl-2; data not shown) was “no changes in the levels of Bcl-2” and the “p21 promoter driven β-Gal expression” value (p21 promoter) was “inhibit p21 promoter”.
